US8232401B2 (Japan Tobacco Inc., priority 2002, dated 2012)

Target: T1, HIV integrase (Human immunodeficiency virus type 1 group M subtype B, UniProt P12497, F1332H)
T1 construct: HIV integrase full length gene; made in house; host or cells: Escherichia coli BL21(DE3)
Assay: Determination of enzyme (HIV integrase) inhibitory activity (strand transfer, microtiter plate, absorbance at 450 nm)
Type: biochemical, HIV (Human Immunodeficiency Virus (type 1))
Conditions: recombinant HIV integrase (F185H) expressed in E. coli; donor DNA on streptavidin plate, digoxigenin target DNA; 37° C.
Protocol: The following explains evaluation methods of the HIV integrase inhibitory activity of the compound of the present invention.
(i) Construction of Recombinant Integrase Gene Expression System
(ii) Production and Purification of Integrase Protein
Escherichia coli recombinant BL21(DE3) transformed with plasmid pET21a-IN-F185H obtained in (i) was shake cultured at 30° C. in a liquid medium containing ampicillin. When the culture reached the logarithmic growth phase, isopropyl-β-D-thiogalactopyranoside was added to promote expression of integrase gene. The culture was continued for 3 hrs to promote accumulation of the integrase protein. The recombinant E. coli was collected in pellets by centrifugal separation and preserved at −80° C.
The E. coli was suspended in Lysis buffer (20 mM HEPES (pH 7.5), 5 mM DTT, 10 mM CHAPS, 10% glycerol) containing 1M sodium chloride and subjected to repeat pressurization and depressurization for rupture, and centrifugal separation at 4° C., 40,000×g, 60 min to recover a water-soluble fraction (supernatant). This was diluted 10-fold with Lysis buffer free of sodium chloride, mixed with SP-Sepharose (Pharmacia Corporation) and stirred at 4° C. for 60 min to allow adsorption of integrase protein to the resin. The resin was washed with Lysis buffer containing 100 mM sodium chloride and the integrase protein was eluted with Lysis buffer containing 1M sodium chloride.
The eluted integrase protein solution was applied to a Superdex 75 (Pharmacia Corporation) column for gel filtration. The protein was eluted with Lysis buffer containing 1M sodium chloride.
The obtained fractions of the integrate protein were collected and preserved at −80° C.
(iii) Preparation of DNA Solution
The following DNA synthesized by Greiner was dissolved in TE buffer (10 mM Tris-hydrochloric acid (pH 8.0), 1 mM EDTA) and mixed with donor DNA, target DNA, each complementary strand (+ and − strands) to 1 μM. The mixture was heated at 95° C. for 5 min, 80° C. for 10 min, 70° C. for 10 min, 60° C. for 10 min, 50° C. for 10 min and 40° C. for 10 min and preserved at 25° C. to give a double stranded DNA, which was used for the test. Donor DNA (− strand having biotin attached to the 5′ terminal)
(iv) Determination of Enzyme (HIV Integrase) Inhibitory activity
The donor DNA was diluted with TE buffer to 10 nM, of which 50 μl was added to each well of streptavidin-coated microtiter plate (Roche) and allowed to adsorb at 37° C. for 60 min. The DNA was washed with phosphate buffer (Dulbecco PBS, Sanko Junyaku Co., Ltd.) containing 0.1% Tween 20 and phosphate buffer. Then, a reaction mixture (70 μl) having the following composition, a test substance (10 μl) diluted with the reaction mixture and […] integrase protein (10 μl) were added to each well and reacted at 37° C. for 60 min.
Then, 50 nM target DNA (1.0 μl) was added, reacted at 37° C. for 10 min and washed with phosphate buffer containing 0.1% Tween 20 to stop the reaction.
Then, 100 mU/ml peroxidase labeled anti-digoxigenin antibody solution (Roche, 100 μl) was added, and the mixture was reacted at 37° C. for 60 min, followed by washing with phosphate buffer containing 0.1% Tween 20.
A peroxidase color solution (Bio Rad, 100 μl) was added and allowed to react at room temperature for 4 min. The color reaction was stopped by adding 1N sulfuric acid (100 μl). The absorbance at 450 nm was measured.
The HIV integrase inhibitory activity (IC50) of the compound of the present invention was calculated from the inhibition rate according to the following formula. […] Evaluation of Antiviral Activity

Compound | IC50 [nM]
NS(=O)(=O)Cn1cc(C(=O)O)c(=O)c2cc(Cc3c(F)cccc3Cl)ccc21 [Example 1-75, 6-(2-Chloro-6-fluorobenzyl)-1-sulfamoylmethyl-4-oxo-1,4-dihydroquinoline-3-carboxylic acid] | 16
CNS(=O)(=O)Cn1cc(C(=O)O)c(=O)c2cc(Cc3c(F)cccc3Cl)ccc21 [Example 1-76, 6-(2-Chloro-6-fluorobenzyl)-1-methylsulfamoylmethyl-4-oxo-1,4-dihydroquinoline-3-carboxylic acid] | 28
CN(C)S(=O)(=O)Cn1cc(C(=O)O)c(=O)c2cc(Cc3c(F)cccc3Cl)ccc21 [Example 1-77, 6-(2-Chloro-6-fluorobenzyl)-1-dimethylsulfamoylmethyl-4-oxo-1,4-dihydroquinoline-3-carboxylic acid] | 63
O=C(O)c1cn(CCO)c2ccc(Cc3ccccc3)cc2c1=O [Example 1-78] | 590
Cc1cccc(Cc2ccc3c(c2)c(=O)c(C(=O)O)cn3CCO)c1Cl [Example 1-79, 6-(2-Chloro-3-methylbenzyl)-1-(2-hydroxyethyl)-4-oxo-1,4-dihydroquinoline-3-carboxylic acid] | 77
O=C(O)c1cn(CCO)c2ccc(Cc3ccccc3Br)cc2c1=O [Example 1-80, 6-(2-Bromobenzyl)-1-(2-hydroxyethyl)-4-oxo-1,4-dihydroquinoline-3-carboxylic acid] | 350
O=C(O)c1cn(CCO)c2ccc(Cc3ccccc3-c3ccccc3)cc2c1=O [Example 1-86, 6-Biphenyl-2-ylmethyl-1-(2-hydroxyethyl)-4-oxo-1,4-dihydroquinoline-3-carboxylic acid] | 150
O=C(O)c1cn(CCO)c2ccc(Cc3ccccc3Cl)cc2c1=O [Example 1-87, 6-(2-Chlorobenzyl)-1-(2-hydroxyethyl)-4-oxo-1,4-dihydroquinoline-3-carboxylic acid] | 140
O=C(O)c1cn(CCO)c2ccc(Cc3cccc(-c4ccccc4)c3)cc2c1=O [Example 1-88] | 450
CSc1ccc(Cl)c(Cc2ccc3c(c2)c(=O)c(C(=O)O)cn3CCO)c1 [Example 1-92, 6-(2-Chloro-5-methylsulfanylbenzyl)-1-(2-hydroxyethyl)-4-oxo-1,4-dihydroquinoline-3-carboxylic acid] | 280
O=C(O)c1cn(CCO)c2ccc(Cc3ccccc3OC(F)(F)F)cc2c1=O [Example 1-93, 1-(2-Hydroxyethyl)-4-oxo-6-(2-trifluoromethyloxybenzyl)-1,4-dihydroquinoline-3-carboxylic acid] | 370
O=C(O)c1cn(CCO)c2ccc(Cc3cccc(Br)c3)cc2c1=O [Example 1-96] | 230
Cc1ccc(Cl)c(Cc2ccc3c(c2)c(=O)c(C(=O)O)cn3CCO)c1 [Example 1-97, 6-(2-Chloro-5-methylbenzyl)-1-(2-hydroxyethyl)-4-oxo-1,4-dihydroquinoline-3-carboxylic acid] | 130
Nn1cc(C(=O)O)c(=O)c2cc(Cc3cccc(Cl)c3Cl)ccc21 [Example 2-1, 1-Amino-6-(2,3-dichlorobenzyl)-4-oxo-1,4-dihydroquinoline-3-carboxylic acid] | 170
COC(=O)Nn1cc(C(=O)O)c(=O)c2cc(Cc3cccc(Cl)c3Cl)ccc21 [Example 2-2, 6-(2,3-Dichlorobenzyl)-1-methoxycarbonylamino-4-oxo-1,4-dihydroquinoline-3-carboxylic acid] | 180
CC(=O)Nn1cc(C(=O)O)c(=O)c2cc(Cc3cccc(Cl)c3Cl)ccc21 [Example 2-3, 1-Acetylamino-6-(2,3-dichlorobenzyl)-4-oxo-1,4-dihydroquinoline-3-carboxylic acid] | 110

Compound | IC50 [nM]
CS(=O)(=O)Nn1cc(C(=O)O)c(=O)c2cc(Cc3cccc(Cl)c3Cl)ccc21 [Example 2-4, 6-(2,3-Dichlorobenzyl)-1-methanesulfonylamino-4-oxo-1,4-dihydroquinoline-3-carboxylic acid] | 18
CN(n1cc(C(=O)O)c(=O)c2cc(Cc3cccc(Cl)c3Cl)ccc21)S(C)(=O)=O [Example 2-5, 6-(2,3-Dichlorobenzyl)-1-(N-methanesulfonyl-N-methylamino)-4-oxo-1,4-dihydroquinoline-3-carboxylic acid] | 300
CN(C)n1cc(C(=O)O)c(=O)c2cc(Cc3cccc(Cl)c3Cl)ccc21 [Example 2-6, 6-(2,3-Dichlorobenzyl)-1-dimethylamino-4-oxo-1,4-dihydroquinoline-3-carboxylic acid] | 92
CNn1cc(C(=O)O)c(=O)c2cc(Cc3cccc(Cl)c3Cl)ccc21 [Example 2-7, 6-(2,3-Dichlorobenzyl)-1-methylamino-4-oxo-1,4-dihydroquinoline-3-carboxylic acid] | 79
CCNn1cc(C(=O)O)c(=O)c2cc(Cc3cccc(Cl)c3Cl)ccc21 [Example 2-8, 6-(2,3-Dichlorobenzyl)-1-ethylamino-4-oxo-1,4-dihydroquinoline-3-carboxylic acid] | 85
COc1c(Cc2cccc(Cl)c2Cl)ccc2c1c(=O)c(C(=O)O)cn2CCO [Example 3-1, 6-(2,3-Dichlorobenzyl)-1-(2-hydroxyethyl)-5-methoxy-4-oxo-1,4-dihydroquinoline-3-carboxylic acid] | 470
Cc1c(Cl)cccc1Cc1ccc2c(c1)c(=O)c(C(=O)O)cn2CCO [Example 3-2, 6-(3-Chloro-2-methylbenzyl)-1-(2-hydroxyethyl)-4-oxo-1,4-dihydroquinoline-3-carboxylic acid] | 200
COc1c(Cl)cccc1Cc1ccc2c(c1)c(=O)c(C(=O)O)cn2CCO [Example 3-3, 6-(3-Chloro-2-methoxybenzyl)-1-(2-hydroxyethyl)-4-oxo-1,4-dihydroquinoline-3-carboxylic acid] | 190
COc1cc2c(cc1Cc1cccc(Cl)c1F)c(=O)c(C(=O)O)cn2CCO [Example 3-4, 6-(3-Chloro-2-fluorobenzyl)-1-(2-hydroxyethyl)-7-methoxy-4-oxo-1,4-dihydroquinoline-3-carboxylic acid] | 11
O=C(O)c1cn(CCO)c2ccc(Cc3cccc(Cl)c3Cl)c(O)c2c1=O [Example 3-5, 6-(2,3-Dichlorobenzyl)-5-hydroxy-1-(2-hydroxyethyl)-4-oxo-1,4-dihydroquinoline-3-carboxylic acid] | 24
O=C(O)c1cn(CCO)c2cc(O)c(Cc3cccc(Cl)c3Cl)cc2c1=O [Example 3-6, 6-(2,3-Dichlorobenzyl)-7-hydroxy-1-(2-hydroxyethyl)-4-oxo-1,4-dihydroquinoline-3-carboxylic acid] | 11
CN(C)c1ccccc1Cc1ccc2c(c1)c(=O)c(C(=O)O)cn2CCO [Example 3-8, 6-(2-Dimethylaminobenzyl)-1-(2-hydroxyethyl)-4-oxo-1,4-dihydroquinoline-3-carboxylic acid] | 340
O=C(O)c1cn(-c2ccccc2)c2ccc(Cc3cccc(Cl)c3Cl)cc2c1=O [Example 3-9, 6-(2,3-Dichlorobenzyl)-4-oxo-1-phenyl-1,4-dihydroquinoline-3-carboxylic acid] | 84
O=C(O)c1cn(C(CO)CO)c2ccc(Cc3cccc(Cl)c3Cl)cc2c1=O [Example 3-10, 6-(2,3-Dichlorobenzyl)-1-[2-hydroxy-1-(hydroxymethyl)ethyl]-4-oxo-1,4-dihydroquinoline-3-carboxylic acid] | 18
O=C(O)c1cn(C2CCC2)c2ccc(Cc3cccc(Cl)c3Cl)cc2c1=O [Example 3-12, 1-Cyclobutyl-6-(2,3-dichlorobenzyl)-4-oxo-1,4-dihydroquinoline-3-carboxylic acid] | 16
